Source: patent publication US11111251B2, “Positive allosteric modulators of the muscarinic acetylcholine receptor M1” (Vanderbilt University, priority 2016, dated 2021)

Molecular target: T1, human mAChR M1 (Homo sapiens, UniProt P11229)
T1 sequence (P11229 1-460): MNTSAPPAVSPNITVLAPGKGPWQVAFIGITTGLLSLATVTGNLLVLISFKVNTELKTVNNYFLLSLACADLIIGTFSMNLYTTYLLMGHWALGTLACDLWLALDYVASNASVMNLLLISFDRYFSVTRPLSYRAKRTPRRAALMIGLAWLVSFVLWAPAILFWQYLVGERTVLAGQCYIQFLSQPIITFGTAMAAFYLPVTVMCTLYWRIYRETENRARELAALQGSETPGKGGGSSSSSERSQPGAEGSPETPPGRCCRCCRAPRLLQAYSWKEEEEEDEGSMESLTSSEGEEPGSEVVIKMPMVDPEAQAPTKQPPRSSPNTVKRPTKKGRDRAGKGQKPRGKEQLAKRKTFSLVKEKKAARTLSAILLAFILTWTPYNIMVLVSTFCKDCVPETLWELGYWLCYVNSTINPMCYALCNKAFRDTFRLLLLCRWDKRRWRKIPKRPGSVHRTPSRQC
Assay: mAChR M1 cell-based functional assay: calcium mobilization, positive allosteric modulator mode (increase in EC20 acetylcholine response)
Details: Table 2, human M1; for EC50: read-out: Human M1 EC50; for Emax: read-out: Human M1 Emax (%)
In short: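 Calcium-flux assay in CHO-K1 cells stably expressing human M1, loaded with Fluo-4 AM (50 min, 37 °C) and read at 1 Hz. Compound (11-point, 1:3 series) was added at 4 s, EC20 acetylcholine at 144 s and EC80 at 230 s. PAM activity is the concentration-dependent rise in the EC20 response, fitted with a four-parameter logistic.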

EC50 [nM]	Emax [%]	Structure (SMILES)
150	53.9	Cn1cc(-c2ccc(Cc3cc(C(=O)NC4CCOCC4(C)C)nc4ccsc34)cc2)cn1 (centres unmarked) [Compound 379, N-(3,3-dimethyltetrahydropyran-4-yl)-7-[[4-(1-methylpyrazol-4-yl)phenyl]methyl]thieno[3,2-b]pyridine-5-carboxamide]
287	64.5	CC1CC(NC(=O)c2cc(Cc3ccc(-c4cnn(C)c4)cc3)c3sccc3n2)CC(C)O1 (centres unmarked) [Compound 380, N-(2,6-dimethyltetrahydropyran-4-yl)-7-[[4-(1-methylpyrazol-4-yl)phenyl]methyl]thieno[3,2-b]pyridine-5-carboxamide]
98.1	60.4	Cn1cc(-c2ccc(Cc3cc(C(=O)NC4CCOC(C)(C)C4)nc4ccsc34)cc2)cn1 (centres unmarked) [Compound 381, N-(2,2-dimethyltetrahydropyran-4-yl)-7-[[4-(1-methylpyrazol-4-yl)phenyl]methyl]thieno[3,2-b]pyridine-5-carboxamide]
386	56.6	O=C(NCC1CCO1)c1cc(Cc2ccc(-c3nccs3)cc2)c2sccc2n1 (centres unmarked) [Compound 382, N-(oxetan-2-ylmethyl)-7-[(4-thiazol-2-ylphenyl)methyl]thieno[3,2-b]pyridine-5-carboxamide]
> 10000	30.4	O=C(NC1CC(F)(F)C1)c1cc(Cc2ccc(-c3nccs3)cc2)c2sccc2n1 [Compound 383]
1370	65.2	O=C(NCC1CCCO1)c1cc(Cc2ccc(-c3nccs3)cc2)c2sccc2n1 (centres unmarked) [Compound 384, N-(tetrahydrofuran-2-ylmethyl)-7-[(4-thiazol-2-ylphenyl)methyl]thieno[3,2-b]pyridine-5-carboxamide]
> 10000	41.1	O=C(NC1CCC(F)(F)CC1)c1cc(Cc2ccc(-c3nccs3)cc2)c2sccc2n1 [Compound 385, N-(4,4-difluorocyclohexyl)-7-[(4-thiazol-2-ylphenyl)methyl]thieno[3,2-b]pyridine-5-carboxamide]
1910	66.1	CC1CC(NC(=O)c2cc(Cc3ccc(-c4nccs4)cc3)c3sccc3n2)CC(C)O1 (centres unmarked) [Compound 386, N-(2,6-dimethyltetrahydropyran-4-yl)-7-[(4-thiazol-2-ylphenyl)methyl]thieno[3,2-b]pyridine-5-carboxamide]
583	69.5	O=C(NCC1CCOCC1)c1cc(Cc2ccc(-c3cncs3)cc2)c2sccc2n1 [Compound 387, N-(tetrahydropyran-4-ylmethyl)-7-[(4-thiazol-5-ylphenyl)methyl]thieno[3,2-b]pyridine-5-carboxamide]
846	67.8	CC1(C)CC(NC(=O)c2cc(Cc3ccc(-c4cncs4)cc3)c3sccc3n2)CCO1 (centres unmarked) [Compound 388, N-(2,2-dimethyltetrahydropyran-4-yl)-7-[(4-thiazol-5-ylphenyl)methyl]thieno[3,2-b]pyridine-5-carboxamide]
345	64.9	O=C(NC[C@@H]1CCCO1)c1cc(Cc2ccc(-c3nccs3)cc2)c2sccc2n1 [Compound 389, N-[[(2S)-tetrahydrofuran-2-yl]methyl]-7-[(4-thiazol-2-ylphenyl)methyl]thieno[3,2-b]pyridine-5-carboxamide]
926	66.3	CC1(C)COCCC1NC(=O)c1cc(Cc2ccc(-c3cncs3)cc2)c2sccc2n1 (centres unmarked) [Compound 390, N-(3,3-dimethyltetrahydropyran-4-yl)-7-[(4-thiazol-5-ylphenyl)methyl]thieno[3,2-b]pyridine-5-carboxamide]
1800	73.4	CC1CC(NC(=O)c2cc(Cc3ccc(-c4cncs4)cc3)c3sccc3n2)CC(C)O1 (centres unmarked) [Compound 391, N-(2,6-dimethyltetrahydropyran-4-yl)-7-[(4-thiazol-5-ylphenyl)methyl]thieno[3,2-b]pyridine-5-carboxamide]
199	65.4	C[C@@H]1COCC[C@@H]1NC(=O)c1cc(Cc2ccc(-c3cncs3)cc2)c2sccc2n1 [Compound 392, N-[(3S,4S)-3-methyltetrahydropyran-4-yl]-7-[(4-thiazol-5-ylphenyl)methyl]thieno[3,2-b]pyridine-5-carboxamide]
1340	68.7	C[C@H]1COCC[C@@H]1NC(=O)c1cc(Cc2ccc(-c3cncs3)cc2)c2sccc2n1 [Compound 393, N-[(3R,4S)-3-methyltetrahydropyran-4-yl]-7-[(4-thiazol-5-ylphenyl)methyl]thieno[3,2-b]pyridine-5-carboxamide]
233	65.5	O=C(NC1CCOCC1)c1cc(Cc2ccc(-c3cncs3)cc2)c2sccc2n1 [Compound 394, N-tetrahydropyran-4-yl-7-[(4-thiazol-5-ylphenyl)methyl]thieno[3,2-b]pyridine-5-carboxamide]
18.5	60.1	O=C(N[C@H]1CCCC[C@@H]1O)c1cc(Cc2ccc(-c3cncs3)cc2)c2sccc2n1 [Compound 395, N-[(1S,2S)-2-hydroxycyclohexyl]-7-[(4-thiazol-5-ylphenyl)methyl]thieno[3,2-b]pyridine-5-carboxamide]
1060	63	O=C(NCC1CCOC1)c1cc(Cc2ccc(-c3cncs3)cc2)c2sccc2n1 (centres unmarked) [Compound 396, N-(tetrahydrofuran-3-ylmethyl)-7-[(4-thiazol-5-ylphenyl)methyl]thieno[3,2-b]pyridine-5-carboxamide]

More lines, now with the values behind:

Structure (SMILES)	EC50 [nM]	Emax [%]
O=C(NC1CCCOC1)c1cc(Cc2ccc(-c3nccs3)cc2)c2sccc2n1 (centres unmarked) [Compound 366, N-tetrahydropyran-3-yl-7-[(4-thiazol-2-ylphenyl)methyl]thieno[3,2-b]pyridine-5-carboxamide]	1870	83.7
O=C(NC1CC(F)C1)c1cc(Cc2ccc(-c3nccs3)cc2)c2sccc2n1 (centres unmarked) [Compound 367, N-(3-fluorocyclobutyl)-7-[(4-thiazol-2-ylphenyl)methyl]thieno[3,2-b]pyridine-5-carboxamide]	> 10000	71.9
O=C(N[C@@H]1CCOC1)c1cc(Cc2ccc(-c3nccs3)cc2)c2sccc2n1 [Compound 368]	2300	65.6
O=C(N[C@H]1CCOC1)c1cc(Cc2ccc(-c3nccs3)cc2)c2sccc2n1 [Compound 369, N-[(3S)-tetrahydrofuran-3-yl]-7-[(4-thiazol-2-ylphenyl)methyl]thieno[3,2-b]pyridine-5-carboxamide]	2290	59.5
CC1COCCC1NC(=O)c1cc(Cc2ccc(-c3nccs3)cc2)c2sccc2n1 (centres unmarked) [Compound 370, N-(3-methyltetrahydropyran-4-yl)-7-[(4-thiazol-2-ylphenyl)methyl]thieno[3,2-b]pyridine-5-carboxamide]	400	77.7
O=C(N[C@H]1COCC[C@@H]1O)c1cc(Cc2ccc(-c3nccs3)cc2)c2sccc2n1 [Compound 371]	22.1	81.5
COCCCNC(=O)c1cc(Cc2ccc(-c3nccs3)cc2)c2sccc2n1 [Compound 372, N-(3-methoxypropyl)-7-[(4-thiazol-2-ylphenyl)methyl]thieno[3,2-b]pyridine-5-carboxamide]	1880	75.3
COCCNC(=O)c1cc(Cc2ccc(-c3nccs3)cc2)c2sccc2n1 [Compound 373, N-(2-methoxyethyl)-7-[(4-thiazol-2-ylphenyl)methyl]thieno[3,2-b]pyridine-5-carboxamide]	1420	79.6
O=C(NCC1CCOC1)c1cc(Cc2ccc(-c3nccs3)cc2)c2sccc2n1 (centres unmarked) [Compound 374, N-(tetrahydrofuran-3-ylmethyl)-7-[(4-thiazol-2-ylphenyl)methyl]thieno[3,2-b]pyridine-5-carboxamide]	556	73.1
O=C(NCC1CCCCO1)c1cc(Cc2ccc(-c3nccs3)cc2)c2sccc2n1 (centres unmarked) [Compound 375, N-(tetrahydropyran-2-ylmethyl)-7-[(4-thiazol-2-ylphenyl)methyl]thieno[3,2-b]pyridine-5-carboxamide]	> 10000	77.4
Cn1ccc(-c2ccc(Cc3cc(C(=O)NC4CCOCC4(C)C)nc4ccsc34)cn2)n1 (centres unmarked) [Compound 376, N-(3,3-dimethyltetrahydropyran-4-yl)-7-[[6-(1-methylpyrazol-3-yl)-3-pyridyl]methyl]thieno[3,2-b]pyridine-5-carboxamide]	170	60.7
CC1CC(NC(=O)c2cc(Cc3ccc(-c4ccn(C)n4)nc3)c3sccc3n2)CC(C)O1 (centres unmarked) [Compound 377, N-(2,6-dimethyltetrahydropyran-4-yl)-7-[[6-(1-methylpyrazol-3-yl)-3-pyridyl]methyl]thieno[3,2-b]pyridine-5-carboxamide]	412	58.7
Cn1ccc(-c2ccc(Cc3cc(C(=O)NC4CCOC(C)(C)C4)nc4ccsc34)cn2)n1 (centres unmarked) [Compound 378, N-(2,2-dimethyltetrahydropyran-4-yl)-7-[[6-(1-methylpyrazol-3-yl)-3-pyridyl]methyl]thieno[3,2-b]pyridine-5-carboxamide]	167	58.9
